How the values were obtained:
Assay in all cases: relative viability (nuclei count vs DMSO), 5 days (fraction); higher = more cells survive
[1] = test system: NCI-H2085
Procedure, shortened: (§1)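 Dosing by pin tool came one day after lung cancer cell lines were seeded in 1536-well plates, using either one drug or a fixed anchor-drug dose plus five library-drug doses (not always all listed) in √10 steps. After 5 days, nuclei were counted on 4× images. Relative viability is treated-well nuclei count divided by vehicle-well nuclei count, and values are medians of duplicate plates.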

[2] = test system: LXF-289
Procedure, shortened: as §1

[3] = test system: NCI-H1993
Procedure, shortened: as §1

[4] = test system: ABC-1
Procedure, shortened: as §1

[5] = test system: CAL-12T
Procedure, shortened: as §1

[6] = test system: HCC-15
Procedure, shortened: as §1

[7] = test system: EPLC-272H
Procedure, shortened: as §1

[8] = test system: HCC-78
Procedure, shortened: as §1

[9] = test system: NCI-H2126
Procedure, shortened: as §1

[10] = test system: NCI-H1755
Procedure, shortened: as §1

[11] = test system: NCI-H358
Procedure, shortened: as §1

[12] = test system: NCI-H322M
Procedure, shortened: as §1

[13] = test system: NCI-H441
Procedure, shortened: as §1

[14] = test system: ChaGo-K-1
Procedure, shortened: as §1

[15] = test system: NCI-H1915
Procedure, shortened: as §1

[16] = test system: NCI-H1666
Procedure, shortened: as §1

[17] = test system: NCI-H3122
Procedure, shortened: as §1

[18] = test system: NCI-H1975
Procedure, shortened: as §1

[19] = test system: EMC-BAC-2
Procedure, shortened: as §1

[20] = test system: COR-L 105
Procedure, shortened: as §1

[21] = test system: NCI-H2023
Procedure, shortened: as §1

[22] = test system: HOP-62
Procedure, shortened: as §1

[23] = test system: UMC-11
Procedure, shortened: as §1

CC1(C)CCC(c2ccc(Cl)cc2)=C(CN2CCN(c3ccc(C(=O)NS(=O)(=O)c4ccc(N[C@H](CCN5CCOCC5)CSc5ccccc5)c(S(=O)(=O)C(F)(F)F)c4)cc3)CC2)C1 [Navitoclax] + CC(=O)c1c(C)c2cnc(Nc3ccc(N4CCNCC4)cn3)nc2n(C2CCCC2)c1=O [Palbociclib] (partner 0.5 µM)
relative viability ([1]; first compound 0.005 µM): 0.45
relative viability ([1]; first compound 0.01581 µM): 0.456
relative viability ([1]; first compound 0.05 µM): 0.379
relative viability ([1]; first compound 0.1581 µM): 0.482
relative viability ([1]; first compound 0.5 µM): 0.502
relative viability ([2]; first compound 0.005 µM): 0.589
relative viability ([2]; first compound 0.01581 µM): 0.658
relative viability ([2]; first compound 0.05 µM): 0.547
relative viability ([2]; first compound 0.1581 µM): 0.606
relative viability ([2]; first compound 0.5 µM): 0.627
relative viability ([3]; first compound 0.005 µM): 0.7
relative viability ([3]; first compound 0.01581 µM): 0.744
relative viability ([3]; first compound 0.05 µM): 0.593
relative viability ([3]; first compound 0.1581 µM): 0.749
relative viability ([3]; first compound 0.5 µM): 0.653
relative viability ([4]; first compound 0.005 µM): 0.896
relative viability ([4]; first compound 0.01581 µM): 0.845
relative viability ([4]; first compound 0.05 µM): 0.691
relative viability ([4]; first compound 0.1581 µM): 0.747
relative viability ([4]; first compound 0.5 µM): 0.639
relative viability ([5]; first compound 0.005 µM): 0.4
relative viability ([5]; first compound 0.01581 µM): 0.445
relative viability ([5]; first compound 0.05 µM): 0.409
relative viability ([5]; first compound 0.1581 µM): 0.496
relative viability ([5]; first compound 0.5 µM): 0.405
relative viability ([6]; first compound 0.005 µM): 0.738
relative viability ([6]; first compound 0.01581 µM): 0.77
relative viability ([6]; first compound 0.05 µM): 0.655
relative viability ([6]; first compound 0.1581 µM): 0.773
relative viability ([6]; first compound 0.5 µM): 0.687
relative viability ([7]; first compound 0.005 µM): 0.325
relative viability ([7]; first compound 0.05 µM): 0.324
relative viability ([7]; first compound 0.1581 µM): 0.31
relative viability ([7]; first compound 0.5 µM): 0.297
relative viability ([8]; first compound 0.005 µM): 0.509
relative viability ([8]; first compound 0.01581 µM): 0.428
relative viability ([8]; first compound 0.05 µM): 0.441
relative viability ([8]; first compound 0.1581 µM): 0.448
relative viability ([8]; first compound 0.5 µM): 0.489
relative viability ([9]; first compound 0.005 µM): 0.35
relative viability ([9]; first compound 0.01581 µM): 0.355
relative viability ([9]; first compound 0.05 µM): 0.342
relative viability ([9]; first compound 0.1581 µM): 0.303
relative viability ([9]; first compound 0.5 µM): 0.366
relative viability ([10]; first compound 0.005 µM): 0.433
relative viability ([10]; first compound 0.01581 µM): 0.482
relative viability ([10]; first compound 0.05 µM): 0.436
relative viability ([10]; first compound 0.1581 µM): 0.477
relative viability ([10]; first compound 0.5 µM): 0.488
relative viability ([11]; first compound 0.005 µM): 0.128
relative viability ([11]; first compound 0.01581 µM): 0.147
relative viability ([11]; first compound 0.05 µM): 0.142
relative viability ([11]; first compound 0.1581 µM): 0.121
relative viability ([11]; first compound 0.5 µM): 0.134
relative viability ([12]; first compound 0.005 µM): 0.522
relative viability ([12]; first compound 0.01581 µM): 0.534
relative viability ([12]; first compound 0.05 µM): 0.476
relative viability ([12]; first compound 0.1581 µM): 0.479
relative viability ([12]; first compound 0.5 µM): 0.499
relative viability ([13]; first compound 0.005 µM): 0.225
relative viability ([13]; first compound 0.01581 µM): 0.268
relative viability ([13]; first compound 0.05 µM): 0.192
relative viability ([13]; first compound 0.1581 µM): 0.216
relative viability ([13]; first compound 0.5 µM): 0.284
relative viability ([14]; first compound 0.005 µM): 0.971
relative viability ([14]; first compound 0.01581 µM): 0.926
relative viability ([14]; first compound 0.05 µM): 0.492
relative viability ([14]; first compound 0.1581 µM): 0.903
relative viability ([14]; first compound 0.5 µM): 0.954
relative viability ([15]; first compound 0.005 µM): 0.585
relative viability ([15]; first compound 0.01581 µM): 0.544
relative viability ([15]; first compound 0.05 µM): 0.499
relative viability ([15]; first compound 0.1581 µM): 0.507
relative viability ([15]; first compound 0.5 µM): 0.509
relative viability ([16]; first compound 0.005 µM): 0.623
relative viability ([16]; first compound 0.01581 µM): 0.69
relative viability ([16]; first compound 0.05 µM): 0.666
relative viability ([16]; first compound 0.1581 µM): 0.665
relative viability ([16]; first compound 0.5 µM): 0.726
relative viability ([17]; first compound 0.005 µM): 0.206
relative viability ([17]; first compound 0.01581 µM): 0.164
relative viability ([17]; first compound 0.05 µM): 0.225
relative viability ([17]; first compound 0.1581 µM): 0.177
relative viability ([17]; first compound 0.5 µM): 0.182
relative viability ([18]; first compound 0.005 µM): 0.533
relative viability ([18]; first compound 0.01581 µM): 0.661
relative viability ([18]; first compound 0.05 µM): 0.437
relative viability ([18]; first compound 0.1581 µM): 0.532
relative viability ([18]; first compound 0.5 µM): 0.585
relative viability ([19]; first compound 0.005 µM): 0.522
relative viability ([19]; first compound 0.01581 µM): 0.533
relative viability ([19]; first compound 0.05 µM): 0.532
relative viability ([19]; first compound 0.1581 µM): 0.5
relative viability ([19]; first compound 0.5 µM): 0.507
relative viability ([20]; first compound 0.005 µM): 0.408
relative viability ([20]; first compound 0.01581 µM): 0.46
relative viability ([20]; first compound 0.05 µM): 0.39
relative viability ([20]; first compound 0.1581 µM): 0.427
relative viability ([20]; first compound 0.5 µM): 0.34
relative viability ([21]; first compound 0.005 µM): 0.421
relative viability ([21]; first compound 0.01581 µM): 0.427
relative viability ([21]; first compound 0.05 µM): 0.384
relative viability ([21]; first compound 0.1581 µM): 0.401
relative viability ([21]; first compound 0.5 µM): 0.439
relative viability ([22]; first compound 0.005 µM): 0.449
relative viability ([22]; first compound 0.01581 µM): 0.442
relative viability ([22]; first compound 0.05 µM): 0.429
relative viability ([22]; first compound 0.1581 µM): 0.391
relative viability ([22]; first compound 0.5 µM): 0.448
relative viability ([23]; first compound 0.005 µM): 0.388
relative viability ([23]; first compound 0.01581 µM): 0.305
relative viability ([23]; first compound 0.05 µM): 0.333
relative viability ([23]; first compound 0.1581 µM): 0.322
relative viability ([23]; first compound 0.5 µM): 0.319
